Measurements published in patent US20040110954A1, “Methods of synthesizing phenol-contining compounds” (priority 2003, published 2004).
Read-outs that look alike come from different tables or passages of the source.

Tests used:
[1] = Glucuronidation in human hepatic microsomes with UDPGA; settings: human hepatic microsomes ca. 0.5 mg/mL protein, 0.5 uM compound, UDPGA 4 mM, pH 7.4, 37° C.
Procedure: (§1) The standard procedure for these experiments is as follows: incubations were performed in a final volume of 1.0 mL in a heated block at approximately 37° C. Each incubation contained approximately 0.5 mg/mL microsomal protein and 0.5 uM of the compound. The incubations were conducted with 50 mM potassium phosphate buffer (pH 7.4) and, following a 5 min preincubation at 37° C., were initiated by the addition of cofactor (UDPGA, 4 mM). Aliquots were removed every three minutes and were quenched with two volumes of ACN/EtOH/Acetic acid (80:20:1) containing an appropriate internal standard. Samples were store frozen (ca.−70° C.) until analysis for the quantitation of the parent compound by LC/MS methods. The rate of disappearance of each compound was determined from relative concentration versus time profiles fitted to appropriate exponential decay equations. CLint (mL/min/g liver) was calculated using standard scaling factors.

[2] = microsomes, pH 7.4
Procedure: as §1

[3] = microsomes, pH 7.4; remark: listed apart in the source
Procedure: as §1

[4] = In vivo half-life and clearance in the rat; settings: male Sprague-Dawley rats; crossover: 60 min iv infusion, then oral gavage; plasma, noncompartmental analysis
Procedure: Method for Determining the in vivo Half-life (T½) of Compounds in Table 3. The study was conducted using a crossover design on two separate study days. Three male Sprague-Dawley rats received surgically implanted catheters in the vena cava (via the femoral vein), and in the femoral artery at least three days prior to the study. […] On study day two, the animals (fasted) received the compound by oral gavage (16.0 mL/kg). […] Blood samples were collected prior to dosing and at various times following administration of compounds. Plasma concentrations of the compounds were quantified by an HPLC/MS/MS method (LLQ=10 ng/mL). Noncompartmental analysis was used for pharmacokinetic analysis of plasma concentration versus time data.

[5] = Glucuronidation in rat hepatic microsomes with UDPGA; settings: rat hepatic microsomes ca. 0.5 mg/mL protein, 0.5 uM compound, UDPGA 4 mM, pH 7.4, 37° C.
Procedure: as §1

Compound | CLint (mL/min/g liver) human ([1]; Table 1 diphenylureas) [mL/min/g liver] | Clint (mL/min/g liver) rat ([5]; Table 1 diphenylureas) [mL/min/g liver] | also measured
CC(C)Cc1c(C#N)ccc(NC(=O)Nc2ccccc2Br)c1O [Table 1 Entry 13, 1-(2-Bromo-phenyl)-3-(4-cyano-2-hydroxy-3-isobutyl-phenyl)-urea] | 7.6 | – | –
N#Cc1ccc(NC(=O)Nc2ccccc2Br)c(O)c1Br [Table 1 Entry 14, 1-(3-Bromo-4-cyano-2-hydroxy-phenyl)-3-(2-bromo-phenyl)-urea] | – | – | Clint (mL/min/g liver) rat [2]: 27 mL/min/g liver; CLint (mL/min/g liver) human [3]: 3.7 mL/min/g liver
CN(C)S(=O)(=O)c1c(Cl)ccc(NC(=O)Nc2cccc(Cl)c2Cl)c1O [Table 1 Entry 3, N-[4-Chloro-3-(N″,N″-dimethylaminosulfonyl)-2-hydroxyphenyl]-N′-(2,3-dichlorophenyl) urea] | <0.6 | <0.6 | Cl [4]: 65 mL/min/kg; T½ [4]: 11.4 min; Clint (mL/min/g liver) rat ([5]; Table 2 squaramide series): 12 mL/min/g liver; CLint (mL/min/g liver) human ([1]; Table 2 squaramide series): 16 mL/min/g liver
CNS(=O)(=O)c1c(Cl)ccc(NC(=O)Nc2cccc(Cl)c2Cl)c1O [Table 1 Entry 5, N-[4-chloro-2-hydroxy-3-(N″-methylaminosulfonyl)phenyl]-N′-(2,3-dichlorophenyl) urea] | <0.6 | <0.6 | Cl [4]: 26 mL/min/kg; T½ [4]: 5.4 min; Clint (mL/min/g liver) rat ([5]; Table 2 squaramide series): 6.7 mL/min/g liver; CLint (mL/min/g liver) human ([1]; Table 2 squaramide series): >50 mL/min/g liver
CS(=O)(=O)c1c(Cl)ccc(NC(=O)Nc2cccc(Cl)c2Cl)c1O [Table 1 Entry 8, 1-(4Chloro-2-hydroxy-3-methanesulfonyl-phenyl)-3-(2,3-dichloro-phenyl)-urea] | <0.6 | <0.6 | –
COCCNS(=O)(=O)c1c(Cl)ccc(NC(=O)Nc2cccc(Cl)c2Cl)c1O [Table 1 Entry 7, N-[4-chloro-2-hydroxy-3-[N″-(2-methoxyethyl)sufonyl]phenyl]-N′-(2,3-dichlorophenyl) urea] | <0.6 | <0.6 | –
C[S+]([O-])c1c(Cl)ccc(NC(=O)Nc2cccc(Cl)c2Cl)c1O (stereo not shown) [Table 1 Entry 15, 1-(4-Chloro-2-hydroxy-3-methanesulfinyl-phenyl)-3-(2,3-dichloro-phenyl)-urea] | 4.1 | 2.6 | –
CS(=O)(=O)c1c(C#N)ccc(NC(=O)Nc2ccccc2Br)c1O [Table 1 Entry 9, 1-(2-Bromo-phenyl)-3-(4-cyano-2-hydroxy-3-methanesulfonyl-phenyl)-urea] | <0.6 | <0.6 | –
O=C(Nc1ccc(Cl)c(C(=O)Nc2ccccc2)c1O)Nc1cccc(Cl)c1Cl [Table 1 Entry 18, 6-Chloro-3-[3-(2,3-dichloro-phenyl)-ureido]-2-hydroxy-N-phenyl-benzamide] | 11 | 9.3 | melting point: 244 to 245 °C
CCCC(C)c1c(C#N)ccc(NC(=O)Nc2ccccc2Br)c1O (stereo not shown) [Table 1 Entry 12, 1-(2-Bromo-phenyl)-3-[4-cyano-2-hydroxy-3-(1-methyl-butyl)-phenyl]-urea] | 2.4 | – | –
NC(=O)c1c(Cl)ccc(NC(=O)Nc2ccccc2Br)c1O [Table 1 Entry 17, 3-[3-(2-Bromo-phenyl)-ureido]-6-chloro-2-hydroxy-benzamide] | 15.4 | 5.2 | –
CN(C)S(=O)(=O)c1c(Cl)ccc(NC(=O)Nc2ccccc2Br)c1O [Table 1 Entry 4, N-(2-Bromophenyl)-N′[4-chloro-3-(N″,N″-dimethylaminosulfonyl)-2-hydroxyphenyl] urea] | <0.6 | <0.6 | Cl [4]: 72 mL/min/kg; Clint (mL/min/g liver) rat ([5]; Table 2 squaramide series): 5.1 mL/min/g liver; CLint (mL/min/g liver) human ([1]; Table 2 squaramide series): 28 mL/min/g liver
O=C(Nc1ccc(Cl)c(C(=O)N2CCOCC2)c1O)Nc1cccc(Cl)c1Cl [Table 1 Entry 19, 1-[4-Chloro-2-hydroxy-3-(1-morpholin-4-yl-methanoyl)-phenyl]-3-(2,3-dichloro-phenyl)-urea] | 21 | 24 | –
CCC(C)c1c(C#N)ccc(NC(=O)Nc2ccccc2Br)c1O (stereo not shown) [Table 1 Entry 11, 1-(2-Bromo-phenyl)-3-[4-cyano-2-hydroxy-3-(1-methyl-propyl)-phenyl]-urea] | 2.8 | – | –
CNS(=O)(=O)c1c(Cl)ccc(NC(=O)Nc2ccccc2Br)c1O [Table 1 Entry 6, N′-(2-bromophenyl)-N′-[4-chloro-2-hydroxy-3-(N″-methylaminosulfonyl)phenyl] urea] | – | – | Clint (mL/min/g liver) rat [2]: <0.6 mL/min/g liver; CLint (mL/min/g liver) human [3]: <0.6 mL/min/g liver
N-(4-chloro-2-hydroxy-3-aminosulfonylphenyl)-N′-(2,3-dichlorophenyl) urea sodium salt [Example 1] | <0.6 | <0.6 | Cl [4]: 4.6 mL/min/kg; T½ [4]: 636 min; Clint (mL/min/g liver) rat ([5]; Table 2 squaramide series): <0.6 mL/min/g liver; CLint (mL/min/g liver) human ([1]; Table 2 squaramide series): <0.6 mL/min/g liver
NS(=O)(=O)Cc1c(Cl)ccc(NC(=O)Nc2cccc(Cl)c2Cl)c1O [Table 1 Entry 16, {6-Chloro-3-[3-(2,3-dichloro-phenyl)-ureido]-2-hydroxy-phenyl}-methanesulfonamide] | 11 | 1.3 | –
CCCc1c(C#N)ccc(NC(=O)Nc2ccccc2Br)c1O [Table 1 Entry 10, 1-(2-Bromo-phenyl)-3-(4-cyano-2-hydroxy-3-propyl-phenyl)-urea] | 11.3 | – | melting point: 174 to 175 °C
